From patent publication US7615361B2, “Toxicity screening methods” (Ceetox, Inc., priority 2006, dated 2009)

Legend:
rat cardiomyocytes [1] = experiment: Membrane lipid peroxidation (8-isoprostane ELISA); format: cell-based
Protocol: (§1) One test compound (Compound A) was received as dry powder and evaluated for potential cytotoxicity in a battery of in vitro assays. The compound was tested using both rat cardiomyocytes (CM) from rat neonates and a rat hepatoma (H4IIE) cell line. […] Camptothecin and rotenone were included as positive control compounds. The cell supernatant or the cells themselves were harvested for biochemical analysis. General cytotoxicity was evaluated by monitoring membrane integrity, mitochondrial function, cell proliferation, oxidative stress, and apoptosis. In addition, interaction with P-glycoprotein (PgP) on H4IIE cells and solubility of the test compound were also assessed. The means of each exposure group (n=3-7) were calculated for each assay performed. Intra assay variation well-to-well was typically less than 10% with plate to plate variation typically less than 20%.

H4IIE cells [2] = experiment: Intracellular ATP levels; format: cell-based, rat
Protocol: (§2) One test compound (Compound A) was received as dry powder and evaluated for potential cytotoxicity in a battery of in vitro assays. The compound was tested using both rat cardiomyocytes (CM) from rat neonates and a rat hepatoma (H4IIE) cell line. […] The cell supernatant or the cells themselves were harvested for biochemical analysis. General cytotoxicity was evaluated by monitoring membrane integrity, mitochondrial function, cell proliferation, oxidative stress, and apoptosis. In addition, interaction with P-glycoprotein (PgP) on H4IIE cells and solubility of the test compound were also assessed. The means of each exposure group (n=3-7) were calculated for each assay performed.
(§3) Experimental Protocol: The test compound was provided and stored at 4° C. until needed. Dosing solutions were prepared in complete culture medium. The rat hepatoma (H4IIE) cell line was used as the test system.
(§4) Intracellular ATP Levels: Cellular Adenosine triphosphate (ATP) was determined with an assay based on a reaction between ATP+D-luciferin+oxygen catalyzed by luciferase to yield Oxyluciferin+AMP+PPi+CO2+light. The emitted light is proportional to the amount of ATP present. […] In addition, a unique cell lysis reagent inhibits endogenous ATPases and therefore stabilizes cellular ATP by preventing its degradation to ADP. ATP is present in all-living cells and declines rapidly upon cell death. In addition, this assay in combination with the MTT assay provides an indicator of mitochondrial activity and energy status of the cell.
(§5) Plates were analyzed immediately or stored at −20° C. until needed. On the day of analysis, the plates were thawed and calibration curve prepared with ATP in the same liquid matrix as samples. ATP was quantified by adding ATP substrate solution and then reading luminescence on a Packard Fusion Luminescence or equivalent plate reader.
(§6) Intracellular ATP Levels: ATP levels in treated cells could be determined by using the regression coefficients obtained from the linear regression analysis of the calibration curve. Thus, values could be expressed as pmoles ATP/million cells. Background corrected luminescence was used to determine percent change relative to controls by dividing treated values by control values and multiplying by 100.

H4IIE cells [3] = experiment: Membrane lipid peroxidation (8-isoprostane ELISA); format: cell-based, rat
Protocol: as §1, §3

rat cardiomyocytes [4] = experiment: MTT reduction; format: cell-based
Protocol: as §2
(§7) Tetrazolium Dye Reduction: 3-[4,5-dimethylthiazol-2-yl]

H4IIE cells [5] = experiment: MTT reduction; format: cell-based, rat
Protocol: as §2, §3, §7

rat cardiomyocytes [6] = experiment: Intracellular total glutathione (GSH); format: cell-based
Protocol: as §2

rat cardiomyocytes [7] = experiment: MemTox membrane leakage (AK / α-GST); format: cell-based
Protocol: as §2
(§8) Membrane Leakage (α-Glutathione S-transferase and/or Adenylate Kinase): The presence of Adenylate Kinase (AK) or α-Glutathione S-transferase (α-GST), both enzyme leakage markers, was measured in the culture medium using an activity assay for Adenylate Kinase and/or an ELISA assay for α-GST. At the end of the exposure period, the medium covering the cells in each well was removed and placed into new 96-well plates with appropriate labeling. […] Luminescence (AK) values were measured with a Packard Fusion or equivalent plate reader, and absorbance (α-GST) values were measured with a Packard SpectraCount™ or equivalent reader at 450 nm and reference absorbance at 650 nm.
(§9) Membrane Leakage (α-Glutathione S-transferase and/or Adenylate Kinase): Leakage of Adenylate Kinase or α-GST from the cell into the culture medium was determined by collecting the culture medium at the end of the exposure period. Thus, the values measured represent total enzyme leakage lost over the exposure period. The control for 100% dead or maximum enzyme release was based on cells treated with 1 mM digitonin at the time of dosing. Percent dead cells relative to digitonin treated cells was determined and then subtracted from 100% to yield the percent live cells.

H4IIE cells [8] = experiment: MemTox membrane leakage (AK / α-GST); format: cell-based, rat
Protocol: as §2, §3, §8, §9

P-glycoprotein (PgP) = P-glycoprotein (PgP) binding: MTT with and without cyclosporin A; format: cell-based, rat; settings: H4IIE 24 HR; for % Control (Compound + CSA) / % Control (Compound): MTT, 50 μM; for % Control (Compound + CSA): with cyclosporin A; for % Control (Compound): without CSA
Protocol: Several antiviral drugs are substrates for P-glycoprotein transporter (PgP).
P-glycoprotein (PgP) transport proteins are expressed in the bile canalicular membrane of normal liver. However, in neoplastic cells it is not uncommon to have expression of this transporter system in the plasma membrane. […] The existence of these transporters was evaluated with the Calcein-AM assay and with known substrates of PgP.

H4IIE cells [9] = experiment: Cell number (propidium iodide); format: cell-based, rat
Protocol: as §2, §3
Cell Proliferation: Cell proliferation in each well was measured with propidium iodide (PI). This specific nucleic acid binding dye fluoresces when intercalated within the nucleic acids. The 15 nm shift enhances PI fluorescence approximately 20 times while the excitation maxima are shifted 30-40 nm. During method development experiments, it was determined that Triton-X-100 was the best solution to permeabilize the H4IIE cells thereby allowing the PI access to intracellular RNA and DNA. Fluorescence was measured using a Packard Fusion plate reader or equivalent reader at 540 nm excitation and 610 nm emission.
Cell Proliferation: After incubation, the test compound was removed and Triton X-100 solution containing propidium iodide is added. The plate was incubated and read on a fluorescent plate reader. Data was collected as relative fluorescent units (RFU). The blank was subtracted from the final well RFU. It represents the average of the first and last columns which contain no cells on that particular plate. The controls are untreated cells allowed to grow on the same plate. The compounds are represented by several separate RFU data points for each of the tested concentrations. The percent change relative to controls was calculated by dividing the average RFU by the control cell RFU and multiplying by 100.

rat cardiomyocytes [10] = experiment: Intracellular ATP levels; format: cell-based
Protocol: as §2, §4, §5, §6

H4IIE cells [11] = experiment: Intracellular total glutathione (GSH); format: cell-based, rat
Protocol: as §2, §3

[12] = Metabolic stability (LC/MS, parent remaining); format: in vitro ADME, dog; settings: 1 μM, 30 min at 37° C.
Protocol: (§10) Metabolic stability was conducted using pooled microsomes form induced (BNF/PB) male rat (Sprague-Dawley) animals and induced (BNF/PB) male dog (Beagle) animals. The test compounds were incubated for 30 min at 37° C. at concentrations of 1 μM. Subsequent LC/MS analysis measured disappearance of the parent molecule. The data are expressed as percent of parent remaining. Positive controls for highly metabolized compounds were included for comparison.
(§11) Metabolic Stability and Profiling by mass spectrometry: Metabolic stability was conducted using pooled male dog (beagle) microsomes and male rat (Sprague-Dawley) microsomes from induced (beta-Naphthoflavone/Phenobarbital, BNF/PB) animals. The test compounds were incubated for 30 min at 37° C. at concentrations of 1 and 10 μM. Subsequent analysis by mass spectrometry measured disappearance of the parent molecule. The data are expressed as percent of parent remaining. Positive controls for highly metabolized compounds were included for comparison.
(§12) Metabolic Stability: The analysis measured disappearance of the parent molecule. The data were expressed as percent of parent remaining. Positive controls for highly metabolized compounds were included for comparison.

[13] = Metabolic stability (LC/MS, parent remaining); format: in vitro ADME, rat; settings: 1 μM, 30 min at 37° C.
Protocol: as §10, §11, §12

[14] = Metabolic activation (disappearance of GSH); settings: liver microsomes from Phenobarbital/BNF induced rats
MTT reduction = format: cell-based, rat; settings: rat
Protocol: as §2, §7

[15] = Intracellular total glutathione (GSH); format: cell-based, rat; settings: rat
Protocol: as §2

[16] = MemTox membrane leakage (AK / α-GST); format: cell-based, rat; settings: rat
Protocol: as §2, §8, §9

H4IIE cells [17] = experiment: Predicted Ctox from Tox-Panel; format: cell-based, rat; settings: 24 HR, estimated sustained plasma concentration where toxicity would be expected in vivo
Protocol: Once all data for a given cluster of assays are received, the data are analyzed to obtain a detailed profile of the compound's toxicity. For example, most conveniently, the data are collated over a dose response range on a single graph. In such an embodiment, the measurement evaluated for each parameter (i.e., each indicator of cell health) at any given concentration is plotted as a percentage of a control measurement obtained in the absence of the compound. However, it should be noted that the data need not be plotted on a single graph, so long as all the parameters are analyzed collectively to yield detailed information of the effects of the concentration of the compound on the different parameters to yield an overall toxicity profile. As set forth below, this overall toxicity profile will facilitate a determination of a plasma concentration Ctox that is predicted to be toxic in vivo. Ctox represents an estimate of the sustained plasma concentration in vivo that would result in toxicity, such as hepatotoxicity or hematopoietic toxicity.
Studies such as these indicate that a preferred concentration for setting Ctox is the highest concentration at which there is no observed effect on any of the indicators being measured in the cluster analysis, especially a 24-hour cluster analysis. […] It will be apparent that 24 hour assays are more time-effective, and consequently, the 24 hour NOEL/Ctox represents a preferred data point to select as Ctox in a CATS assay. It will also be apparent that, with further time studies, it may be possible to select an equally suitable Ctox at other CATS assay time points (e.g., between 24 and 72 hours, or less than 24 hours).
In certain embodiments, the predicting comprises performing concentration response analyses of measurements from at least three separate assays that are employed in the cluster analysis. For example, in the cell health cluster, such predicting will involve monitoring the concentration response effect of the compound on a first health indicator which monitors cellular replication, a second cell health indicator which monitors mitochondrial function, and a third cell health indicator which monitors membrane integrity. Of course, it is understood that fourth, fifth, sixth or more cell health indicators also may be employed. From these concentration response analyses, the highest concentration of the chemical compound at which a measurable toxic effect of the chemical compound is not observable, i.e. NOEL, is determined and the Ctox is identified as the concentration that correlates to the NOEL. In choosing the concentrations of the compound for analysis, one of skill in the art should devise a dose response regimen which is selected to provide an indication of cell health at concentrations of at least two concentration values higher than the Ctox concentration.
The Ctox (H4IIE) value was developed using 24 hr in vitro toxicity data and was validated by retrospectively evaluating compounds across different classes of drugs in 14-day rat studies in which compounds were administered on a daily basis and pharmacokinetic data was available. […] Thus, Ctox values are only determined for the 24 hr in vitro results. The 6 hr toxicity analyses are typically not performed but are beneficial for interpretation of results when compound toxicity is high (e.g., Ctox≦20 μM).

Intracellular ATP levels = format: cell-based, rat; settings: rat
Protocol: as §2, §4, §5, §6

[18] = Intracellular total glutathione (GSH); format: cell-based, rat; settings: rat, Total GSH TC50
Protocol: as §2, §3

## Cc1cn([C@H]2C[C@H](N=[N+]=[N-])[C@@H](CO)O2)c(=O)[nH]c1=O [AZT]
Rat cardiomyocytes [1]
  Membrane Lipid Peroxidation: 0
H4IIE cells [2]
  CC50: > 300 µM
H4IIE cells [3]
  Membrane Lipid Peroxidation: 0
Rat cardiomyocytes [4]
  CC50: > 300 µM
H4IIE cells [5]
  CC50: > 300 µM
Rat cardiomyocytes [6]
  CC50: > 300 µM
Rat cardiomyocytes [7]
  CC50: > 300 µM
H4IIE cells [8]
  CC50: > 300 µM
P-glycoprotein (PgP)
  % Control (Compound + CSA): 99.0%
  % Control (Compound): 116.6%
H4IIE cells [9]
  CC50: > 300 µM
Rat cardiomyocytes [10]
  CC50: > 300 µM
H4IIE cells [11]
  CC50: > 300 µM

## Cc1ncc2n1-c1ccc(Cl)cc1C(c1ccccc1F)=NC2 [MIDAZOLAM]
[12]
  % Parent Remaining Dog Microsomes: 0.0%
[13]
  % Parent Remaining Rat Microsomes: 0.0%

## CC(C)C(=O)Nc1ccc([N+](=O)[O-])c(C(F)(F)F)c1 [flutamide]
[14]
  reduction in GSH (metabolic activation): most pronounced effects

## CC(C)(C)NC(=O)[C@@H]1CN(Cc2cccnc2)CCN1C[C@@H](O)C[C@@H](Cc1ccccc1)C(=O)N[C@H]1c2ccccc2C[C@H]1O [indinavir]
H4IIE cells [2]; rat, 24 h
  ATP TC50: 300 µM
MTT reduction
  CC50 at 24 h: > 300 µM
H4IIE cells [5]; rat, 24 h
  MTT TC50: 300 µM
[15]
  CC50 at 24 h: 71 µM
[16]
  CC50 at 24 h: > 300 µM
H4IIE cells [17]
  Predicted Ctox: 90 µM
H4IIE cells [8]; rat, 24 h
  MemTox TC50: 300 µM
P-glycoprotein (PgP)
  % Control (Compound + CSA): 91.3%
  % Control (Compound): 106.0%
P-glycoprotein (PgP); 1-20% low, 20-50% moderate, 50-100% high PgP interaction
  % Difference: 13.9%
H4IIE cells [9]; rat, 24 h
  Cell Number TC50: 300 µM
Intracellular ATP levels
  CC50 at 24 h: > 300 µM
[18]
  CC50 at 24 h: 249 µM
